# Measurements reported in article PMC10974284, “Discovery of Novel 4-Hydroxyquinazoline Derivatives: In Silico, In Vivo and In Vitro Studies Using Primary PARPi-Resistant Cell Lines” (Molecules, 2024).
# Like-named read-outs stand apart in the source and are kept apart here.
# Key:
# HCT-15 cell lines [1] = experiment: MTT cytotoxicity assay, HCT-15; assay type: cell-based, human; settings: Homo sapiens, HCT-15
# Procedure: (§1) After treatment with target compounds at the different concentrations, MTT was added and the cells were incubated for another 4 h. The IC50 values of the selected compounds were evaluated by the same method. The cells were treated with compounds at different concentrations. The OD values were detected using a microplate reader at 570 nm.
# HCC1937 cell lines [2] = experiment: MTT cytotoxicity assay, HCC1937; assay type: cell-based, human; settings: Homo sapiens, HCC1937
# Procedure: as §1
# MDA-MB-231 = experiment: MTT cytotoxicity assay, MDA-MB-231; assay type: cell-based; settings: Homo sapiens
# Procedure: as §1
# LO2 = experiment: MTT cytotoxicity assay, LO2 normal hepatocytes; assay type: cell-based; settings: L02, 72 h; 3 days, human normal hepatocytes
# Procedure: as §1
# NCM460 = experiment: MTT cytotoxicity assay, NCM460 normal colonic epithelial cells; assay type: cell-based; settings: NCM460, 72 h; 3 days, human normal colonic epithelial cells
# Procedure: as §1
# HCT-15 cell lines [3] = experiment: Cell apoptosis assay (Annexin V-FITC/PI flow cytometry), HCT-15; assay type: cell-based, human; settings: HCT-15, 20 μM, 48 h
# Procedure: (§2) The cells were seeded in 6-well plates with 1 × 10^5 cells per well and incubated for 24 h. […] The cells were digested, collected, and resuspended in the binding buffer. After adding 5 μL of Annexin V-FITC and 10 μL of propidium iodide (PI), the cells were incubated for 30 min away from light; this was followed by detection using flow cytometry (Beckman Coulter).
# HCC1937 cell lines [4] = experiment: Cell apoptosis assay (Annexin V-FITC/PI flow cytometry), HCC1937; assay type: cell-based, human; settings: HCC1937, 20 μM, 48 h
# Procedure: as §2
# [5] = test system: PAR formation in HCT-15 cell lines; experiment: Immunofluorescence analysis of PAR, H2O2-treated HCT-15; assay type: cell-based, human
# Procedure: (§3) The cells were seeded in 6-well plates with 1 × 10^5 cells per well and incubated for 24 h. […] Cells were fixed with addition of 4% paraformaldehyde, and immunostaining blocking solution was added at room temperature for 20 min. […] Then, a […] staining solution (DAPI) was added for staining, the […] staining solution was aspirated, and the well washed 3 times with washing solution. Photographs were taken through a Leica SP8 Laser confocal microscope.
# [6] = test system: PAR formation in HCC1937 cell lines; experiment: Immunofluorescence analysis of PAR, H2O2-treated HCC1937; assay type: cell-based, human
# Procedure: as §3
# [7] = test system: γH2AX in HCT-15 cell lines; experiment: Immunofluorescence analysis of γH2AX, HCT-15; assay type: cell-based, human; settings: HCT-15, 10 μM
# Procedure: as §3
# [8] = test system: γH2AX in HCC1937 cell lines; experiment: Immunofluorescence analysis of γH2AX, HCC1937; assay type: cell-based, human; settings: HCC1937, 10 μM
# Procedure: as §3
# [9] = test system: Caspase-3, cleaved Caspase-3, Bax, Bcl-2 in HCT-15 cell lines; experiment: Western blot of apoptosis-related proteins, HCT-15; assay type: cell-based, human; settings: HCT-15, 1.25-20 μM, 48 h
# Procedure: (§4) Subsequently, the cells were lysed with RIPA lysis buffer and protein samples were prepared. Denatured proteins were separated by 10% SDS-PAGE electrophoresis and transferred to a PVDF membrane. The membrane was blocked with 5% blocking solution for 2 h. The membrane was incubated overnight at 4 °C with specific primary antibody. Then, the membrane was rinsed three times with TBST, secondary antibody was added, and the membrane was incubated at room temperature for 2 h. Finally, the target protein was detected by the ECL detection system. The relative expression was quantified using Image J (National Institutes of Health).
# [10] = test system: Caspase-3, cleaved Caspase-3, Bax, Bcl-2 in HCC1937 cell lines; experiment: Western blot of apoptosis-related proteins, HCC1937; assay type: cell-based, human; settings: HCC1937, 1.25-20 μM, 48 h
# Procedure: as §4
# HCT-15 cell lines [11] = experiment: Mitochondrial membrane potential assay (JC-1), HCT-15; assay type: cell-based, human
# Text: (§5) Cell culture methods were the same as for the cell apoptosis assay.
# (§6) The experimental operation was the same as ROS, only replacing the DCFH-DA probe with the JC-1 probe.
# HCC1937 cell lines [12] = experiment: Mitochondrial membrane potential assay (JC-1), HCC1937; assay type: cell-based, human
# Text: as §5, §6
# [13] = test system: HCT-15 nude mouse xenograft model; experiment: In vivo anti-tumor study
# Procedure: The tumor volume and mouse body weight were recorded, and the corresponding tissues were analyzed.
# All experimental procedures were performed according to the National Institutes of Health guidelines for the use of laboratory animals, and an application was made to the Institutional Animal Care and Use Committee, Shandong Second Medical University, which was approved. […] When the tumor volume reached about 80–150 mm^3, the mice were randomly divided into three groups (the control group, and different concentration administration group) and administered for 14 consecutive days, while the tumor volume was measured once every two days and the body weight of the mice was recorded. At the end stage, mice were killed by neck-breaking and tumor tissues were removed. All the photographs were taken through a Leica SP8 Laser confocal microscope.
# [14] = Acute toxicity study in mice; assay type: in vivo, mouse; settings: single intraperitoneal injection 800 mg/kg, monitored 14 days
# Procedure: The mice were administered a single intraperitoneal injection dose of 800 mg/kg and were constantly monitored for 14 days.
compound,measurement,setting,value
"Cc1ccc(Cl)cc1NC(=O)N1C2CC1CN(Cc1nc3ccccc3c(=O)[nH]1)C2 [B1, N-(5-chloro-2-methylphenyl)-3-((4-oxo-3,4-dihydroquinazolin-2-yl)methyl)-3,6-diazabicyclo[3.1.1]heptane-6-carboxamide]",IC50,"HCT-15 cell lines [1]; 72 h (3-Days) drug exposure, MTT, read-out: IC50 HCT-15",2.89 ± 0.78 µM
same,IC50,"HCT-15 cell lines [1]; 7 days drug treatment, read-out: IC50 HCT-15 7-Days",0.13 ± 0.03 µM
same,IC50,"HCC1937 cell lines [2]; 72 h (3-Days) drug exposure, MTT, read-out: IC50 HCC1937",3.26 ± 0.38 µM
same,IC50,"HCC1937 cell lines [2]; 7 days drug treatment, read-out: IC50 HCC1937 7-Days",0.17 ± 0.04 µM
same,IC50,"MDA-MB-231; MDA-MB-231, 72 h, 3 days, read-out: IC50 MDA-MB-231 3-Days",11.3 ± 1.93 µM
same,IC50,"MDA-MB-231; MDA-MB-231, 7 days, read-out: IC50 MDA-MB-231 7-Days",1.33 ± 0.51 µM
same,IC50,LO2,> 100 µM
same,IC50,NCM460,> 100 µM
same,apoptosis rate,HCT-15 cell lines [3],73.58%
same,apoptosis rate,HCC1937 cell lines [4],53.14%
same,PAR aggregation (green fluorescence),"[5]; H2O2-treated HCT-15, 1.25 μM",green fluorescence obviously weakened
same,PAR aggregation (green fluorescence),"[5]; H2O2-treated HCT-15, 5 μM",green fluorescence almost disappeared
same,PAR aggregation (green fluorescence),"[6]; H2O2-treated HCC1937, 1.25 μM",green fluorescence obviously weakened
same,PAR aggregation (green fluorescence),"[6]; H2O2-treated HCC1937, 5 μM",green fluorescence almost disappeared
same,expression of γH2AX,[7],significantly increased
same,expression of γH2AX,[8],significantly increased
same,Bax expression,[9],considerably increased Bax expression
same,Bcl-2 expression,[9],decreased Bcl-2 expression
same,Caspase-3 activation,[9],activated Caspase-3
same,Bax expression,[10],considerably increased Bax expression
same,Bcl-2 expression,[10],decreased Bcl-2 expression
same,Caspase-3 activation,[10],activated Caspase-3
same,mitochondrial membrane potential (JC-1 fluorescence),"HCT-15 cell lines [11]; HCT-15, 5 μM",green fluorescence began to change significantly
same,mitochondrial membrane potential (JC-1 fluorescence),"HCT-15 cell lines [11]; HCT-15, 20 μM",the intensity of red fluorescence was hardly visible
same,mitochondrial membrane potential (JC-1 fluorescence),"HCC1937 cell lines [12]; HCC1937, 5 μM",green fluorescence began to change significantly
same,mitochondrial membrane potential (JC-1 fluorescence),"HCC1937 cell lines [12]; HCC1937, 20 μM",the intensity of red fluorescence was hardly visible
same,tumor cell morphology (H&E),[13]; 10 mg/kg intraperitoneally once daily for 14 days,irregular morphological alterations and severe vacuolization
same,xenograft tumor growth (tumor volume and weight),[13]; 25 mg/kg intraperitoneally once daily for 14 days,significantly inhibited xenograft tumor growth
same,xenograft tumor growth (tumor volume and weight),[13]; 50 mg/kg intraperitoneally once daily for 14 days,significantly inhibited xenograft tumor growth
same,"body weight, acute toxicity",[14],no significant reduction in body weight
same,"major organs (H&E), acute toxicity",[14],"no significant changes in heart, liver, spleen, lung, or kidney"
